The structures appear in SMILES notation. Calls of active or inactive are those of the source. The calls are words filed in the database; no cut-off is given here.

In assay [1] the test system is Mus musculus. Briefly: Antiinflammatory activity in C57BL/6 mouse model of CS-induced pulmonary injury assessed as reduction in IL-6 protein expression in lungs at 2 to 4 mg/kg, ip for 5 days by ELISA. The format is functional, organism-based.
In assay [2] the test system is Mus musculus. Put plainly: Antiinflammatory activity in C57BL/6 mouse model of CS-induced pulmonary injury assessed as increase in GCLM protein expression in lungs at 2 to 4 mg/kg, ip for 5 days by immunoblot analysis. The format is functional, organism-based. On the technique in general: In western blotting, separated proteins are transferred to a membrane and probed.

Regarding `CC1=C(C)C(=O)O[C@H]([C@](C)(O)[C@]2(O)CC[C@@]3(O)[C@@H]4C[C@H]5O[C@]56[C@@H](O)C=CC(=O)[C@]6(C)[C@H]4CC[C@]23C)C1`, the result in assay [1] and in assay [2] was Active.

Source of the values: ChEMBL document CHEMBL4616634, “4β-Hydroxywithanolide E from Goldenberry (Whole Fruits of Physalis peruviana L.) as a Promising Agent against Chronic Obstructive Pulmonary Disease” (J Nat Prod, 2020).
